Consider one compound from patent publication US6787132B1, “Combined chemo-immunotherapy with liposomal drugs and cytokines” (Yissum Research Development Company of the Hebrew …, priority 1997, dated 2004).

What all share (type): in vivo, BALB/c mice
Assay [1] has as its system M109 tumor cells (lung adenocarcinoma). Nature of the assay: Metastatic lung adenocarcinoma model: survival of mice injected intravenously with M109 tumor cells, IL-2 in PEGylated SUV. The note with it: 5×10^5 M109 cells i.v. day 0, ADR or DOXIL 8 mg/kg i.v. day 7, SSL-IL-2 50,000 CU/mouse i.v. days 11, 14, 17. On the procedure:
B2. Metastatic Lung Adenocarcinoma Model: IL-2 in MLV (Formulation B) and PEG-Derivatized SUV (SSL). In this experiment, BALB/c mice were injected intravenously with 5×10^5 M109 tumor cells (day 0). Free adriamycin or DOXIL ®, respectively, were administered intravenously on day 7 (8 mg/kg), followed […] by intravenous cytokine treatment. Liposomal IL-2 (Formulation A; PEGylated SUV containing IL-2) was given once daily (50,000 CU/mouse) on days 11, 14 and 17. Control groups received no treatment or received the IL-2 treatment alone.
(§1) Each group, consisting of 8-9 mice, was inspected for survival up to 100 days after tumor inoculation.

A further assay concerns M109 tumor cells. Put plainly: Second, more extensive M109 study: free or liposomal adriamycin with free IL-2, SSL-IL-2 or MLV-IL-2. The note with it: 5×10^5 M109 cells i.p.; ADR or DOXIL 8 mg/kg i.p. day 7; IL-2 50,000 CU/mouse i.v. days 10, 13, 16; observed up to 120 days. On the procedure: In a second, more extensive study, nine groups of BALB/c mice were injected intraperitoneally with 5×10^5 M109 tumor cells. Free adriamycin or DOXIL® (8 mg/kg) were administered intraperitoneally 7 days later, followed 3 days later by intravenous cytokine treatment. The cytokine, given once daily (50,000 CU/mouse) on days 10, 13 and 16, consisted of free IL-2, IL-2 in Formulation A (Stealth® PEGylated SUV), or IL-2 in Formulation B (9:1 molar DMPC/DMPG MLV).
Each group, consisting of 8 mice, and an untreated control group of 11 mice, were inspected for survival up to 120 days after tumor inoculation.

Assay [2] deals with C26 colon carcinoma cells. Nature of the assay: Subcutaneous colon carcinoma model (footpad), IL-2 in MLV. Particulars: 10^5 C26 cells in footpad, 8 mg/kg free or liposomal adriamycin i.v. day 7, IL-2 i.p. Here is the method:
B3. Subcutaneous colon carcinoma model: IL-2 in MLV. In this test, 7 groups of BALB/c mice were injected in the footpad with 10^5 C26 colon carcinoma cells.

The subject of assay [3] is M109 tumor cells (lung adenocarcinoma). Put plainly: Lung adenocarcinoma model: survival of mice injected intraperitoneally with M109 tumor cells, IL-2 in MLV. The note with it: 5×10^5 M109 cells i.p. day 0, ADR or DOXIL 8 mg/kg i.v. day 7, MLV-IL-2 50,000 CU/mouse i.p. days 10, 13, 16. On the procedure:
B1. Lung Adenocarcinoma Model: IL-2 in MLV. Six groups of BALB/c mice were injected intraperitoneally with 5×10^5 M109 tumor cells (day 0). Free adriamycin or DOXIL®, respectively, were administered intravenously on day 7 at a dose of 8 mg/kg, and intraperitoneal cytokine treatment was initiated 3 days later. Liposomal IL-2 (formulation B; MLV DMPC/DMPG (9:1 mole ratio) liposomes containing IL-2) was given once daily (50,000 CU/mouse) on days 10, 13 and 16. Control groups received no treatment or received the IL-2 treatment alone.
as §1

With `COc1cccc2c1C(=O)c1c(O)c3c(c(O)c1C2=O)C[C@@](O)(C(=O)CO)C[C@@H]3O[C@H]1C[C@H](N)[C@H](O)[C@H](C)O1` [ADR, adriamycin (doxorubicin)], the results for the “MEDIAN SURVIVAL” value (in assay [1] (observed up to 100 days); with M109 tumor cells; in assay [3] (observed up to 100 days)) were 56 days, 100 days and 42 days, respectively. The “NUMBER OF SURVIVING MICE/TOTAL” value in assay [1] (survival up to 100 days) is on record as 2/8; in assay [3] (survival up to 100 days) it was 0/8. In addition, the “NUMBER OF TUMOR FREE MICE/TOTAL” value in the assay with M109 tumor cells is reported as 4/8. The “NUMBER OF TUMOR FREE MICE, DAY 30” value in assay [2] (day 30) is given as 0/7. The “NUMBER OF TUMOR FREE MICE, DAY 65” value in assay [2] (day 65) is given as 0/7.
